The text below walks through data of US8697911B2, “Rho kinase inhibitors” (Boehringer Ingelheim International GmbH, priority 2010, dated 2014).

Test [1] deals with T1, ROCKII (1-543) (Homo sapiens (Human), UniProt O75116). The experiment in a line: Luciferin-Luciferase Assay (Assay 1). The format is biochemical. The conditions noted are these: luciferin-luciferase residual ATP; 750 nM ATP, 7.5 nM kinase. How it is done: 1. Luciferin-Luciferase Assay
The activity of ROCKII (1-543) kinase is measured utilizing Cambrex PKLight ATP Detection Reagent, a homogeneous assay technology using luciferin-luciferase to quantify residual ATP. The assay is performed in 384-well low-volume, white, non-binding surface microtiter plates (Corning). The assay buffer is 25 mM HEPES, pH 7.5, 10 mM MgCl2, 50 mM KCl, 0.2% BSA, 0.01% CHAPS, 100 μM Na3VO4 and 0.5 mM DTT. Test compounds, dissolved in neat DMSO at 500 μg/mL, are serially diluted for dose response for a final starting concentration of 3 μg/mL in 1% DMSO of assay buffer. ROCKII (1-543) (62,408 Da) is diluted in assay buffer to a final concentration of 7.5 nM in a total volume of 15 μL. Positive controls are reaction mixtures containing no test compound; negative controls (blanks) are reaction mixtures containing no kinase. After 15 minutes of pre-incubation of the test compounds with the kinase, a mixture of ATP and peptide substrate ([…]) in assay buffer is added to each well for a final concentration of 750 nM ATP and 500 nM peptide, respectively. After 90 minutes of incubation of the kinase reaction at 28° C. temperature, 10 μL of PKLight ATP Detection Reagent (warmed to room temperature previously) is added to each well. The assay plate is incubated at room temperature for additional 15 minutes and then read on an Analyst in luminescence mode. Dose-response experiments for each of the test compounds are conducted in quadruplet. IC50 values of test compounds represent 50% response of the positive control from the dose-response curve.
Target sequence in this assay (O75116 1-543): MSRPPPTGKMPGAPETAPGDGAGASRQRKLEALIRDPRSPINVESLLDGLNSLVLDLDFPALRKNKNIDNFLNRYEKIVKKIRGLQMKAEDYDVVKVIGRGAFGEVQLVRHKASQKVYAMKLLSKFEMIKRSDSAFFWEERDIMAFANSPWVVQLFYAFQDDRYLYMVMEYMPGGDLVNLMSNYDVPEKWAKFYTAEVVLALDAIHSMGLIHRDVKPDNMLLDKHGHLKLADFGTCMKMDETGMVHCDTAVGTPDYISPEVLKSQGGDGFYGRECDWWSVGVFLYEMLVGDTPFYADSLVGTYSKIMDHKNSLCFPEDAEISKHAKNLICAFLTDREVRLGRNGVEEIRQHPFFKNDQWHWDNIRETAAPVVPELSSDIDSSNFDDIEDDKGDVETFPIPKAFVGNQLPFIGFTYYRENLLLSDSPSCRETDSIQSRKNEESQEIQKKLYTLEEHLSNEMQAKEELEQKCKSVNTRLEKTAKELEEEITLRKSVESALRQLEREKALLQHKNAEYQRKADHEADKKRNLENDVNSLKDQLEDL

In test [2] the target is T1, ROCKII (1-543). The experiment in a line: IMAP Assay (Assay 2). Format: biochemical. The settings on record: IMAP fluorescence polarization; 100 μM ATP, 1 nM kinase. How it is done:
This assay is performed using FAM S6 substrate peptide (Catalogue #R7184) and IMAP FP Screening Express Kit detection reagents from Molecular Devices (Sunnyvale, Calif.) in IMAP kinase reaction buffer (Tris-HCl, pH 7.2, 10 mM MgCl2, 0.05% NaN3, 0.1% phosphate-free BSA) containing 1 mM DTT. Test compounds dissolved in neat DMSO at 0.3 mg/mL are serially diluted 1 to 3 for concentration response in 100% DMSO. The DMSO serial dilutions are further diluted 33.33-fold in kinase reaction buffer, and 10 μL of this buffer dilution is transferred to Corning black 96-well half area NBS plates for a final top concentration of 3 μg/mL in 1% DMSO. 10 μL aliquot of 3 nM ROCKII (1-543) diluted in kinase reaction buffer is added to each assay well for a final concentration of 1 nM kinase. 10 μL of a mixture of 600 nM FAM S6 peptide and 300 μM ATP diluted in kinase reaction buffer is added to each well for a final concentration of 200 nM peptide and 100 μM ATP. The kinase reaction mixture is incubated for 60 minutes at room temperature. Positive controls are reaction mixtures containing no test compound and negative controls (blanks) are reaction mixtures containing no kinase. The kinase reaction is stopped by addition of 60 μL IMAP progressive binding reagent (Catalog #R7284) diluted 400-fold in 1× Binding buffer A. After 30 min of incubation at room temperature, the plates are read for fluorescence polarization on Analyst Plate Reader using Ex 485 nm, Em 530 nm, and FL 505 dichroic minor. The mP signals are converted to percent of control (POC) values using the formula: POC=100*(Signal−BCTRL)÷(PCTRL−BCTRL)
Where Signal is the test well signal, BCTRL is the average of background (negative control) well signals on the plate and PCTRL is the average of positive control well signals on the plate. For the concentration-responsive compounds, POC as a function of test compound concentration is fitted to a 4-parameter logistic equation of the form: Y=A+(B−A)/[1+(x/C)D]
Where A, B, C, and D are fitted parameters (parameter B is fixed at zero POC), and x and y are the independent and dependent variables, respectively. The IC50 is determined as the inflection point parameter, C.
Target sequence in this assay (O75116 1-543, species assumed): as the sequence (O75116 1-543) above

In the case of `CN1CCc2ccc(NC(=O)c3cccc(CNC(=O)c4cn5ccc(C(N)=O)cc5n4)c3)cc2C1` [compound 50, imidazo[1,2-a]pyridine-2,7-dicarboxylic acid 7-amide 2-[3-(2-methyl-1,2,3,4-tetrahydro-isoquinolin-7-ylcarbamoyl)-benzylamide]], the IC50 worked out at 2.9 nM against ROCKII (1-543) [1] and 11 nM against ROCKII (1-543) [2].

Take `CN1CCc2ccc(NC(=O)c3cccc(CNC(=O)c4cc5ccc(C#N)cc5[nH]4)c3)cc2C1` [compound 52]: the IC50 on ROCKII (1-543) [1] is 2.2 nM; against ROCKII (1-543) [2], 8.1 nM.

Turning to `CN1CCc2ccc(NC(=O)c3cccc(CNC(=O)c4cc5ccc(C(N)=O)cc5[nH]4)c3)cc2C1` [compound 54], the results for the IC50 against ROCKII (1-543) [1] and at ROCKII (1-543) [2] were 1.3 nM and 0.45 nM, respectively.

As to `Cc1sc(-c2ccncc2)nc1C(=O)NCc1cccc(C(=O)Nc2nc3c(s2)CN(C)CC3)c1` [compound 58], the IC50 against ROCKII (1-543) [1] came out at 2.1 nM; against ROCKII (1-543) [2] it was 1.2 nM.

As for `CN1CCc2ccc(NC(=O)c3cccc(CNC(=O)c4ccc(-c5cnco5)s4)c3)cc2C1` [compound 64], the values for the half-maximal inhibitory concentration (IC50) at ROCKII (1-543) [1] and against ROCKII (1-543) [2] were 1.5 nM and 1 nM, respectively.

As to `CN1CCc2nc(NC(=O)c3cccc(CNC(=O)c4cn5ccc(C#N)cc5n4)c3)sc2C1` [compound 66], the IC50 was 2.5 nM against ROCKII (1-543) [1] and 12 nM against ROCKII (1-543) [2].

As for `CN1CCc2nc(NC(=O)c3cccc(CNC(=O)c4cc(-c5ccncc5)n[nH]4)c3)sc2C1` [compound 74], the IC50 worked out at 1.3 nM against ROCKII (1-543) [1] and 0.23 nM against ROCKII (1-543) [2].

As to `Cc1nc(-c2ccncc2)sc1C(=O)NCc1cccc(C(=O)Nc2nc3c(s2)CN(C)CC3)c1` [compound 76], the IC50 at ROCKII (1-543) [1] amounted to 1.2 nM; on ROCKII (1-543) [2], 1.4 nM.

On to `CN1CCc2ccc(NC(=O)c3cccc(CNC(=O)c4cc5cc(C#N)ccc5[nH]4)c3)cc2C1` [compound 80], for which the half-maximal inhibitory concentration (IC50) against ROCKII (1-543) [1] amounted to 1.5 nM; against ROCKII (1-543) [2], 0.58 nM.

As for `CN1CCc2ccc(NC(=O)c3cccc(CNC(=O)c4cc5cc(C(N)=O)ccc5[nH]4)c3)cc2C1` [compound 86], the IC50 at ROCKII (1-543) [1] amounted to 1.7 nM; against ROCKII (1-543) [2] it was 0.85 nM.

As to `CN1CCc2nc(NC(=O)c3cccc(CNC(=O)N4CCc5c(C#N)cccc54)c3)sc2C1` [compound 90], the 50% inhibitory concentration (IC50) was 3.1 nM on ROCKII (1-543) [1] and 17 nM at ROCKII (1-543) [2].

As for `CN1CCc2ccc(NC(=O)c3cccc(CNC(=O)c4cc5ccc(C#N)cc5n4C)c3)cc2C1` [compound 92], the values for the IC50 on ROCKII (1-543) [1] and against ROCKII (1-543) [2] were 4.1 nM and 17 nM, respectively.

In the case of `CN1CCc2ccc(NC(=O)c3cccc(CNC(=O)c4cc5cc(C#N)ccc5n4C)c3)cc2C1` [compound 94], the figures for the IC50 on ROCKII (1-543) [1] and against ROCKII (1-543) [2] were 8.1 nM and 46 nM, respectively.

Consider `Cc1nc(-c2ccncc2)sc1C(=O)NCc1cccc(C(=O)Nc2ccc3c(c2)CN(C)CC3)c1` [compound 95], for which the IC50 against ROCKII (1-543) [1] came to 1.4 nM; at ROCKII (1-543) [2], 1.25 nM.

For `CN1CCc2ccc(NC(=O)c3cccc(CNC(=O)c4cc5cc(C(N)=O)ccc5n4C)c3)cc2C1` [compound 96], the results for the IC50 on ROCKII (1-543) [1] and against ROCKII (1-543) [2] were 3.8 nM and 12.2 nM, respectively.

Consider `CN(C)[C@H]1CCc2nc(NC(=O)c3cccc(CNC(=O)c4cn5cc(C#N)ccc5n4)c3)sc2C1` [compound 100], for which the half-inhibitory concentration (IC50) against ROCKII (1-543) [1] was 1.7 nM; at ROCKII (1-543) [2] it was 2.6 nM.

`CN1CCc2ccc(NC(=O)c3cccc(CNC(=O)c4cc(-c5ccncc5)[nH]n4)c3)cc2C1` [compound 119]: the half-inhibitory concentration (IC50) on ROCKII (1-543) [1] was 1.3 nM; on ROCKII (1-543) [2], 0.22 nM.

As for `CN1CCc2ccc(NC(=O)c3cccc(CNC(=O)c4nnn(-c5nonc5N)c4-c4ccccc4)c3)cc2C1` [compound 123], the IC50 came out at 1.7 nM against ROCKII (1-543) [1] and 3.9 nM at ROCKII (1-543) [2].

With `CN1CCc2nc(NC(=O)c3cccc(CNC(=O)c4cc5cc(C#N)ccc5n4C)c3)sc2C1` [compound 124], the half-inhibitory concentration (IC50) against ROCKII (1-543) [1] was 3.8 nM; against ROCKII (1-543) [2], 11 nM.

On to `Cc1c(C(=O)NCc2cccc(C(=O)Nc3ccc4c(c3)CN(C)CC4)c2)nnn1-c1nonc1N` [compound 125], for which the results for the IC50 on ROCKII (1-543) [1] and on ROCKII (1-543) [2] were 5.9 nM and 26 nM, respectively.
